The text below walks through data of patent US20220248744A1, “NICOTINE MATERIALS, METHODS OF MAKING SAME, AND USES THEREOF” (The Research Foundation for the State University of New York, priority 2019, published 2022).

Test in one series: not given
The settings on record: UV λ=300 nm, air flow, 1H NMR.
On to `CN1CCC[C@H]1c1cccnc1.O=C(O)c1c(O)cccc1O` [(S)-nicotinium 2,6-dihydroxybenzoate], for which the “degradation after 24 hours of UV irradiation” value (shortened to “degradation after 24 hours”) is recorded as “no degradation”.

For `CN1CCC[C@H]1c1cccnc1.O=C(O)C[C@H](O)C(=O)O` [orthorhombic P212121 (S)-nicotinium L-malate], the “degradation after 24 hours” value is reported as “no degradation”. For the molecule `CN1CCC[C@H]1c1cccnc1.O=C(O)c1ccccc1O` [monoclinic P21 (S)-nicotinium salicylate, (S)-nicotinium salicylate], the “degradation after 24 hours” value is on record as “no degradation”. Take `CN1CCC[C@H]1c1cccnc1.O=C(O)c1cc(O)c(C(=O)O)cc1O` [(S)-nicotinium 2,5-dihydroxyterephthalate]: the “degradation after 24 hours” value is “no degradation”. On the same count and under the same terms, then `CN1CCCC1c1cccnc1.O.O=C(O)c1cc(=O)[nH]c(=O)[nH]1` [(S)-nicotinium orotate monohydrate], with “no degradation”; and `O=C(O)c1cc(=O)[nH]c(=O)[nH]1` [orotic acid], with “no orotic acid degradation”. Take `O=C(O)c1cc(O)c(C(=O)O)cc1O` [2,5-Dihydroxyterepthalic Acid]: the “degradation after 24 hours” value is reported as “no 2,5-dihydroxyterephthalic acid degradation”.

Consider `CN1CCCC1c1cccnc1.O=C(O)CC(O)C(=O)O` [(S)-nicotinium D-malate], for which the “degradation after 24 hours” value is on record as “no degradation”.

For `CN1CCC[C@H]1c1cccnc1.O=C(O)C[C@H](O)C(=O)O` [monoclinic P21 (S)-nicotinium L-malate, (S)-nicotinium L-malate], the “degradation after 24 hours” value is “no degradation”.

A short description of another series: Thermal analysis (differential scanning calorimetry / melting point): thermodynamic stability. The settings on record: based on DSC thermal analysis. Type of series: physicochemical. On the procedure: Differential Scanning calorimetry (DSC). A differential scanning calorimeter, model DSC Q200 (TA Instrument, USA) was used to measure the thermal transitions of the samples. About 10 mg of each synthesized compound was placed into an aluminum pan and sealed. Each sample, except (S)-nicotinium 2,6-Dihydroxybenzoate, was scanned from 0 to 150° C. at 20° C./min under nitrogen flow for at least 2 full cycles. (S)-nicotinium 2,6-Dihydroxybenzoate was scanned from 0 to 175° C. at 20° C./min under nitrogen flow for at least 2 full cycles.
Melting Point (MP): A Stuart SMP10 melting point apparatus was utilized to measure the melting point of each of the synthesized compounds. 4 replicates were run for each compound. The plateau temperature was set to 100° C. for each of the salts, except (S)-nicotinium D-malate, and then ramped at 2° C./minute. The plateau temperature was set to 80° C. for the (S)-nicotinium D-malate salt and ramped at 2° C./minute.
Thermal Analysis. […] This was confirmed via differential scanning calorimetry (DSC) by a very broad endotherm 116.4° C. […] This was confirmed by DSC where in the sharp endotherm at 123.5° C. indicated the melting of this (S)-nicotinium L-malate salt. […] This was confirmed via DSC, wherein the sharp endotherm at 95.2° C. The orthorhombic P212121 (S)-nicotinium DL-malate was initially observed as having a broad melting point of 76-78° C. The was confirmed via DSC wherein a melting point of 77.8° C., though with a very broad curve. […] Monoclinic P21 (S)-nicotinium 2,6-dihydroxybenzoate salt had the highest melting observed thus far. The sharp endotherm at 158.5° C. confirmed the observed melting point. Monoclinic P21 (S)-nicotinium 2,5-dihydroxyterephthalate was observed initially as having a tight melting point range of 196-198° C.
In the case of `CN1CCC[C@H]1c1cccnc1.O=C(O)c1c(O)cccc1O` [(S)-nicotinium 2,6-dihydroxybenzoate], the “thermodynamic / thermal stability” value is “highest observed thermal stability”. Still for that read-out and setting: then `CN1CCC[C@H]1c1cccnc1.O=C(O)C[C@H](O)C(=O)O` [orthorhombic P212121 (S)-nicotinium L-malate], with “more thermodynamically stable than the orthorhombic P212121 (S)-nicotinium D-malate”; and `CN1CCC[C@H]1c1cccnc1.O=C(O)c1cc(O)c(C(=O)O)cc1O` [(S)-nicotinium 2,5-dihydroxyterephthalate], with “highest observed thermal stability”; and `CN1CCCC1c1cccnc1.O=C(O)CC(O)C(=O)O` [(S)-nicotinium D-malate], with “thermodynamically less stable than either of the (S)-nicotinium L-malate salts”.

Consider `CN1CCC[C@H]1c1cccnc1.O=C(O)C[C@H](O)C(=O)O` [monoclinic P21 (S)-nicotinium L-malate, (S)-nicotinium L-malate], for which the “thermodynamic / thermal stability” value was “most thermodynamically favored and stable malate salt”.

The same series, now with this note: based on DSC thermal analysis; listed as Monoclinic P21 (S)-nicotinium L-malate.
Take `CN1CCC[C@H]1c1cccnc1.O=C(O)C[C@H](O)C(=O)O` [monoclinic P21 (S)-nicotinium L-malate, (S)-nicotinium L-malate]: the “thermodynamic / thermal stability” value was “thermodynamically more stable than the orthorhombic P212121 (S)-nicotinium L-malate”.

Another series can be described thus: Aerosolization/Vaporization Analysis (iStick Pico with Sai atomizer, syringe as lung analog). The settings on record: heating in bucket coil; decarboxylation of the acid coformer.
For `CN1CCC[C@H]1c1cccnc1.O=C(O)c1ccccc1O` [monoclinic P21 (S)-nicotinium salicylate, (S)-nicotinium salicylate], the “degradation product formed during vaporization” value is listed as “phenol was likely also formed”.

Test in the next series: not given
The settings on record: cited from earlier work.
With `COc1ccc(C(=O)O)cc1` [Para-Anisic Acid], the “pKa (Strongest Acidic)” value is recorded as 4.37.

For `OC[C@H]1O[C@@](CO)(O[C@H]2O[C@H](CO)[C@@H](O)[C@H](O)[C@H]2O)[C@@H](O)[C@@H]1O` [Sucrose], the “pKa (Strongest Acidic)” value was 11.84. `NC(C(=O)O)C(=O)O` [Aminomalonic Acid]: the “pKa (Strongest Acidic)” value is listed as 0.45. For `O=C(O)c1cc(Cc2ccc(O)c(C(=O)O)c2)ccc1O` [5,5′-Methylenedisalicylic Acid], the “pKa (Strongest Acidic)” value was 2.94. Turning to `COc1ccccc1C(=O)O` [Ortho-Anisic Acid], the “pKa (Strongest Acidic)” value is on record as 3.73. For `COc1cccc(C(=O)O)c1` [Meta-Anisic Acid], the “pKa (Strongest Acidic)” value is 3.84. `O=C(O)/C=C/C(=O)O` [Fumaric Acid]: the “pKa (Strongest Acidic)” value is given as 3.55. Turning to `C[N+](C)(C)CC(O)CC(=O)[O-]` (stereo not shown) [Carnitine], the “pKa (Strongest Acidic)” value was 4.20. Turning to `O=C(O)/C=C\C(=O)O` [Maleic Acid], the “pKa (Strongest Acidic)” value is reported as 3.05. For the molecule `O=C(O)C(O)C(=O)O` [Tartronic Acid], the “pKa (Strongest Acidic)” value is recorded as 2.42. Turning to `O=C(O)C(O)C(O)C(=O)O` (stereo not shown) [Tartaric Acid], the “pKa (Strongest Acidic)” value is […]. Take `COC(=O)[C@H](Cc1ccccc1)NC(=O)[C@@H](N)CC(=O)O` [Aspartame]: the “pKa (Strongest Acidic)” value is recorded as 3.53. On to `O=C(O)CCC(=O)O` [Succinic Acid], for which the “pKa (Strongest Acidic)” value is given as 3.55. With `OC[C@@H](O)[C@H](O)[C@@H](O)CO` [Xylitol], the “pKa (Strongest Acidic)” value is given as 12.76. As for `OC[C@H]1O[C@H](O[C@]2(CCl)O[C@H](CCl)[C@@H](O)[C@@H]2O)[C@H](O)[C@@H](O)[C@H]1Cl` [Sucralose], the “pKa (Strongest Acidic)” value is given as 1.91. For the molecule `CC1CCC(C(C)C)C(O)C1` (stereo not shown) [Menthol], the “pKa (Strongest Acidic)” value is 19.55. Regarding `O=C(/C=C/c1ccc(O)c(O)c1)O[C@@H](C(=O)O)[C@@H](O)C(=O)O` [Caftaric Acid], the “pKa (Strongest Acidic)” value is listed as 2.96.

Consider `C[N+](C)(C)CC(=O)O` [Betaine], for which the “pKa (Strongest Acidic)” value is 2.26. In the case of `C=C1C[C@@]23CC[C@H]4[C@@](C)(CCC[C@@]4(C)C(=O)O)[C@@H]2CC[C@]1(O)C3` [Steviol], the “pKa (Strongest Acidic)” value was 4.70. On to `O=C(O)c1c(O)cc(O)cc1O` [2,4,6-Trihydroxybenzoic Acid], for which the “pKa (Strongest Acidic)” value is listed as 1.83. On to `O=C(O)c1c(O)cccc1O` [2,6-Dihydroxybenzoic Acid], for which the “pKa (Strongest Acidic)” value was 1.51. In the case of `O=C(O)C=Cc1ccccc1` [Cinnamic acid], the “pKa (Strongest Acidic)” value is 4.01. Regarding `COc1ccc(O)c(C(=O)O)c1` [5-Methoxysalicylic acid], the “pKa (Strongest Acidic)” value is 2.52. Consider `CC(O)(CC(=O)O)C(=O)O` (stereo not shown) [Citramalic Acid], for which the “pKa (Strongest Acidic)” value is given as 3.35. As to `COc1ccc(C(=O)O)c(O)c1` [4-Methoxysalicylic Acid], the “pKa (Strongest Acidic)” value is reported as 3.09. Take `Nc1cccc(C(=O)O)c1O` [3-Aminosalicylic Acid]: the “pKa (Strongest Acidic)” value is recorded as 2.90. As to `O=C(O)[C@H](O)[C@@H](O)[C@@H](O)[C@H](O)CO` [Galactonic Acid], the “pKa (Strongest Acidic)” value was 3.39. Take `CC(=O)C(=O)O` [Pyruvic Acid]: the “pKa (Strongest Acidic)” value was 2.93. For `O=C[C@H](O)[C@@H](O)[C@@H](O)[C@H](O)C(=O)O` [Galacturonic Acid], the “pKa (Strongest Acidic)” value is 3.24. On to `OC[C@@H](O)[C@@H](O)CO` [Erythritol], for which the “pKa (Strongest Acidic)” value is reported as 13.04.
